Results on eight compounds are retold here after patent US20210283078A1, “Treatment of cholestatic pruritus” (CymaBay Therapeutics, Inc., priority 2017, published 2021).

Like-named read-outs stand apart in the source and are kept apart here.

For series [1], the system named is patients with cholestatic pruritus. The conditions noted are these: two studies; cited from earlier work.
The next series concerns PBC patients. The conditions noted are these: 12-month trial, cited from earlier work.
Series [2] relates to patients with cholestatic pruritus. Particulars: several studies; cited from earlier work.
Series [3] has as its system PBC patients with pruritus. The conditions noted are these: Phase 2a; cited from earlier work.
In series [4] the test system is adult subjects with PBC. In words: Example 1: High dose trial in PBC (NCT02609048). The class given is in vivo, human. Particulars: for cases of asymptomatic increases in transaminases: reversible on cessation, no elevation of total bilirubin. The source says:
(§1) The trial subjects were adult, male or female, with a diagnosis of PBC by at least two of the following three criteria: (a) a history of alkaline phosphatase (ALP) above the upper limit of normal (ULN) for at least six months, (b) positive anti-mitochondrial antibody titers >1/40 on immunofluorescence or M2 positive by enzyme linked immunosorbent assay or positive PBC-specific antinuclear antibodies, and (c) documented liver biopsy result consistent with PBC, on a stable and recommended dose of UDCA for the past twelve months, and ALP≥1.67×ULN. Exclusion criteria included AST or ALT≥3×ULN, total bilirubin (TBIL)≥2×ULN, autoimmune hepatitis or a history of chronic viral hepatitis, PSC, the current use of fibrates or simvastatin, the use of colchicine, methotrexate, azathioprine, or systemic steroids in the previous two months, the use of an experimental treatment for PBC, and the use of an experimental or unapproved immunosuppressant. […] Pruritus was assessed using VAS, 5-D itch, and PBC-40. During the study, three cases of asymptomatic increases in transaminases were observed (two in the 200 mg and one in the 50 mg groups): all were reversible on cessation of treatment and were not accompanied by elevation of total bilirubin. Since the study had already shown a clear efficacy signal, the study was discontinued.

The test system of series [5] is adult subjects with PSC, PFIC, or AS. In words: Example 3: treatment of subjects with hepatobiliary disease associated with pruritus. The conditions noted are these: 1, 2, 5, and 10 mg/day oral. The class given is in vivo, human. The protocol: Subjects are permitted their usual other medications, including UDCA. […] At each visit, the subjects are assessed for cholestatic symptoms and biomarkers, and assessed for cholestatic pruritus. The subjects also maintain health diaries, which are reviewed at each visit.

Series [6] concerns adult subjects with PBC. Put plainly: Example 2: Low-dose trial in PBC (NCT02955602), pruritus by VAS. The conditions noted are these: for baseline median VAS: subjects with VAS>0 at baseline; for median change in VAS: week 26. It is filed as in vivo, human.
Description: as §1
At 12 weeks, the results of pruritus assessment by VAS (0-100 scale) were as follows:
37 subjects with VAS>0 at baseline were analysed in the interim analysis at 26 weeks: 18 subjects in the 5/10 mg group and 19 in the 10 mg group. Baseline median VAS were 15 (range 1-68) and 50 (range 5-90) in the 5/10 mg and 10 mg groups, respectively. At week 26, median changes in VAS were −50% and −55% in the 5/10 mg and 10 mg groups, respectively.

The test system of series [7] is patients with cholestatic pruritus. Particulars: more recent study; cited from earlier work.

For the compound `CN[C@H]1CC[C@@H](c2ccc(Cl)c(Cl)c2)c2ccccc21` [sertraline], the “tolerability and reduction of itch intensity” value in series [1] is “well tolerated and moderately effective”.
Turning to `CC[C@H]1[C@@H](O)[C@@H]2[C@H](CC[C@]3(C)[C@@H]([C@H](C)CCC(=O)O)CC[C@@H]23)[C@@]2(C)CC[C@@H](O)C[C@@H]12` [OCALIVA, 6α-ethylchenodeoxycholic acid], the figures for the “severe pruritus, patients” value in the series on PBC patients (10 mg arm) and in the series with PBC patients (titration arm) were 23% and 19%, respectively.
With `O=C1CC[C@@]2(O)[C@H]3Cc4ccc(O)c5c4[C@@]2(CCN3CC2CC2)[C@H]1O5` [naltrexone], the “reduction of cholestatic pruritus vs control intervention” value (“reduction of cholestatic pruritus” below) in series [2] is given as “more likely to reduce cholestatic pruritus than the control intervention”.
For the compound `CCCC[C@]1(CC)CS(=O)(=O)c2cc(CNC(CC(=O)O)CC(=O)O)c(OC)cc2[C@@H](c2ccccc2)N1` [GSK2330672], in series [3], the “diarrhea (most common side effect), subjects” value is on record as 33% and the “reductions in itch scores (1-10 numerical rating scale, PBC-40 itch domain score, 5-D itch scale) vs placebo” value is on record as “significantly greater reductions in itch scores”.
Consider `CCO[C@H](COc1ccc(C(F)(F)F)cc1)CSc1ccc(OCC(=O)O)c(C)c1` [Seladelpar, [4-({(2R)-2-ethoxy-3-[4-(trifluoromethyl)phenoxy]propyl}sulfanyl)-2-methylphenoxy]acetic acid], for which the “cases of asymptomatic increases in transaminases” value is “one” in the series on adult subjects with PBC [4] (50 mg/day oral) and “two” in the series with adult subjects with PBC [4] (200 mg/day oral). Besides, the “adverse events of pruritus on treatment” value with adult subjects with PBC [4] (50 or 200 mg/day oral) is on record as “no adverse events of pruritus were reported”. In addition, in the series with adult subjects with PBC [4] (50 or 200 mg/day oral, at least two weeks of treatment), the “anti-cholestatic effect (primary endpoint ALP)” value is “a potent anti-cholestatic effect was observed”. In addition, in series [5], the “improvement in disease (decrease in ALP and GGT)” value is “improvement in their disease”. The “effect on cholestatic pruritus associated with PBC” value in the series on adult subjects with PBC [6] (5 mg/day and 10 mg/day, 12 weeks) is “significantly reduced the cholestatic pruritus”. For the same compound, the “pruritus VAS (0-100 scale), median” value in the series on adult subjects with PBC [6] (5 mg/day, Visit 2 (Day 1)) came out at 8; in the series with adult subjects with PBC [6] (5 mg/day, Visit 3 (Week 1)) it was 10; with adult subjects with PBC [6] (5 mg/day, Visit 4 (Week 2)) it was 9; in the series on adult subjects with PBC [6] (5 mg/day, Visit 5 (Week 4)), 10; in the series with adult subjects with PBC [6] (5 mg/day, Visit 6 (Week 6)), 5; in the series with adult subjects with PBC [6] (5 mg/day, Visit 7 (Week 8)) it was 7. Further, the “pruritus VAS (0-100 scale), median” value with adult subjects with PBC [6] (5 mg/day, Visit 8 (Week 12)) is 3; in the series with adult subjects with PBC [6] (10 mg/day, Visit 2 (Day 1)), 25; in the series on adult subjects with PBC [6] (10 mg/day, Visit 3 (Week 1)), 13; with adult subjects with PBC [6] (10 mg/day, Visit 4 (Week 2)) it was 30; with adult subjects with PBC [6] (10 mg/day, Visit 5 (Week 4)), 20; in the series with adult subjects with PBC [6] (10 mg/day, Visit 6 (Week 6)), 10. Further, the “pruritus VAS (0-100 scale), median” value with adult subjects with PBC [6] (10 mg/day, Visit 7 (Week 8)) was 15; in the series on adult subjects with PBC [6] (10 mg/day, Visit 8 (Week 12)) it was 6. Moreover, the “baseline median VAS” value with adult subjects with PBC [6] (10 mg group, n=19) is on record as 50 (range 5-90); in the series on adult subjects with PBC [6] (5/10 mg group, n=18), 15 (range 1-68). For the same compound, the “median change in VAS” value in the series on adult subjects with PBC [6] (10 mg group) is recorded as −55%; in the series on adult subjects with PBC [6] (5/10 mg group) it was −50%. In the series on adult subjects with PBC [6] (10 mg/day, after five days, subject entered with intense pruritus), the “subjects discontinued for increased pruritus possibly related to PBC” value is given as “One”. Besides, the “discontinuations related to seladelpar” value in the series on adult subjects with PBC [6] (at 26 weeks) is listed as “no discontinuations related to seladelpar”. For the same compound, the “serious adverse events due to pruritus” value with adult subjects with PBC [6] (at 26 weeks) is recorded as “no serious adverse events due to pruritus”. Moreover, in the series with adult subjects with PBC [6] (at 26 weeks, 24/119 subjects), the “pruritus reported as an adverse event” value was 20%. The “effect on cholestasis, transaminases, LDL-cholesterol, inflammation” value in the series with adult subjects with PBC [6] (doses as low as 5 mg/day, at 12 weeks) is “reversed cholestasis, decreased transaminases, decreased LDL-cholesterol, and reduced inflammation”.
On to `C=C1CC[C@@]2(O)[C@H]3Cc4ccc(O)c5c4[C@@]2(CCN3CC2CC2)[C@H]1O5` [nalmefene], for which the “reduction of cholestatic pruritus” value in series [2] is listed as “more likely to reduce cholestatic pruritus than the control intervention”.
Regarding `C=CCN1CC[C@]23c4c5ccc(O)c4O[C@H]2C(=O)CC[C@@]3(O)[C@H]1C5` [naloxone], the “reduction of cholestatic pruritus” value in series [2] is listed as “more likely to reduce cholestatic pruritus than the control intervention”.
`CO[C@H]1/C=C/O[C@@]2(C)Oc3c(C)c(O)c4c(O)c(c(/C=N/N5CCN(C)CC5)c(O)c4c3C2=O)NC(=O)/C(C)=C\C=C\[C@H](C)[C@H](O)[C@@H](C)[C@@H](O)[C@@H](C)[C@H](OC(C)=O)[C@@H]1C` [rifampicin]: the “incidence of significant hepatitis” value in series [7] is on record as 7.3%.
